Source: article PMC9917184, “Synthesis and Biological Evaluation of Potential Oncoimmunomodulator Agents” (International Journal of Molecular Sciences, 2023)
Where two headings read alike, the source gives them in different places.

Tests used:
c-Myc = assay: Total c-Myc relative quantification by flow cytometry in cancer cell lines; assay type: cell-based, human; details: 24 h
Protocol: (§1) The effect of these triazole derivates on c-Myc and PD-L1 was measured in three different cancer cell lines (HT-29, MCF-7, A-549) by flow cytometry. Thus, cells were incubated for 24 h with the corresponding compound at a concentration of 100 μM. Dimethyl sulfoxide (DMSO)-treated cells were used as the negative control, and a PD-L1 inhibitor, BMS-8 [29, 31], was used as a reference control. After permeabilization and fixation, cells were treated with anti-PD-L1 conjugated to AlexaFluor®647 and anti-c-Myc conjugated to fluorescein to determine the amount of both targets related to the negative control. Table 1 show the results in terms of the percentage of the detected target in relation to the negative control. This assay was carried out on cancer cell lines HT-29, MCF-7, and A-549.
(§2) To study the effect of the compounds on every biological target in cancer cell lines, the compounds were used at a 100 µM dose.
(§3) For the assay, 10^5 cells per well were incubated for 24 h with the corresponding dose of the tested compound in a total volume of 500 μL of their growth media.
(§4) To detect total PD-L1 and c-Myc, after the cell treatments, they were collected and fixed with 4% in PBS paraformaldehyde. After fixation, a treatment with 0,5% in PBS Triton™ X-100 was performed, and finally, cells were stained with FITC Mouse monoclonal Anti-c-Myc (ab223913) and Alexa Fluor® 647 Rabbit monoclonal Anti-PD-L1 (ab215251).

A-549 = A-549 cell viability in co-culture with Jurkat T cells (flow cytometry count); assay type: cell-based, human; details: 24 h; for viability at 100 µM: Homo sapiens, A549, A-549/Jurkat T co-culture, IFN-γ stimulated, read-out: percentage of living A-549 cells relative to non-treated co-cultures; for inhibition rate of A-549 cell viability: co-cultured with Jurkat T cells, 100 μM
Protocol: (§5) The effect of the synthesized compounds on tumor cell proliferation in the presence of PD-1-expressing Jurkat T cells was also studied. This assay was carried out, as in the previous experiments, in the HT29, MCF7, and A549 cell lines (see Table 4). Interferon γ-stimulated cancer cells were treated for 24 h with the compounds at 100 μM in presence of Jurkat T cells. Then, cells were counted using flow cytometry. The percentage of living cells relative to non-treated co-cultures (control) was established for both cancer and immune cells in every co-culture.
(§6) To study the effect of the compounds on the cell viability in co-culture with Jurkat T cells or THP-1 cells, 10^5 or 2 × 10^5 of the corresponding cancer cells line per well were seeded and incubated for 24 h, then the medium was changed by one cell culture medium supplemented with IFN-γ (10 ng/mL; human, Invitrogen®) and containing 5 × 10^5 or 10^5 Jurkat T cells or THP-1, respectively, per well and 100 µM of the corresponding compound or DMSO for the […] control. After 24 h/48 h of incubation, supernatants were collected to determine Jurkat T or THP-1 living cells, and on the other hand, corresponding cancer cells were collected with trypsin. Both types of suspension cells were fixed with 4% in PBS paraformaldehyde and counted by flow cytometry.

HT-29 = HT-29 cell viability in co-culture with Jurkat T cells (flow cytometry count); assay type: cell-based, human; details: 24 h; for viability at 100 µM: Homo sapiens, HT-29/Jurkat T co-culture, IFN-γ stimulated, read-out: percentage of living HT-29 cells relative to non-treated co-cultures
Protocol: as §5, §6

MCF-7 = MCF-7 cell viability in co-culture with Jurkat T cells (flow cytometry count); assay type: cell-based, human; details: Homo sapiens, MCF7, MCF-7/Jurkat T co-culture, IFN-γ stimulated, 24 h, read-out: percentage of living MCF-7 cells relative to non-treated co-cultures
Protocol: as §5, §6

Jurkat T cells = assay: Jurkat T cell viability in co-culture with cancer cells (flow cytometry count); assay type: cell-based; details: Homo sapiens, 24 h, read-out: percentage of living Jurkat cells relative to non-treated co-cultures
Protocol: as §5, §6

membrane VEGFR-2 = assay: Membrane VEGFR-2 relative quantification by flow cytometry in cancer cells co-cultured with Jurkat T cells; assay type: cell-based, human; details: 100 μM, 24 h, relative to non-treated co-cultures
Protocol: (§7) We determined by flow cytometry the effect of these compounds on the expression of membrane PD-L1 in cancer cells when they were co-cultured with immune cells. Thus, interferon γ-stimulated cancer cells were treated for 24 h with the compounds at 100 μM in presence of Jurkat T cells. Then, cells were fixed and treated with anti-PD-L1 conjugated to AlexaFluor®647. We took advantage of the versatility of flow cytometry to simultaneously measure the expression of membrane VEGFR-2 by using anti-VEGFR-2 conjugated to fluorescein.
(§8) To study the effect of the compounds on every biological target in co-cultured cancer cell lines, the compounds were incubated for 24h as described before.
(§9) To detect membrane PD-L1 and VEGFR-2, after the cell treatments, they were collected, fixed with 4% in PBS paraformaldehyde, and stained with FITC Mouse monoclonal Anti-Human VEGFR-2 (ab184903) and Alexa Fluor® 647 Rabbit monoclonal Anti-PD-L1 (ab215251).

membrane PD-L1 = biological target: T1, membrane PD-L1 (Homo sapiens, UniProt Q9NZQ7); assay: Membrane PD-L1 relative quantification by flow cytometry in cancer cells co-cultured with Jurkat T cells; assay type: cell-based; details: Jurkat, 24 h; for remaining activity at 100 µM: relative to non-treated co-cultures, read-out: % PDL1 (membrane); for inhibition at 100 µM: HT-29 co-cultured with Jurkat T cells, read-out: membrane PD-L1 inhibition rate
T1 construct: Alexa Fluor® 647 Rabbit monoclonal Anti-PD-L1 (ab215251); endogenous in cells; host or cells: HT-29, MCF-7, A-549 (A17: MCF-7 only; A14: IFN-gamma-stimulated cancer cells co-cultured with Jurkat T cells)
T1 sequence (Q9NZQ7 19-290): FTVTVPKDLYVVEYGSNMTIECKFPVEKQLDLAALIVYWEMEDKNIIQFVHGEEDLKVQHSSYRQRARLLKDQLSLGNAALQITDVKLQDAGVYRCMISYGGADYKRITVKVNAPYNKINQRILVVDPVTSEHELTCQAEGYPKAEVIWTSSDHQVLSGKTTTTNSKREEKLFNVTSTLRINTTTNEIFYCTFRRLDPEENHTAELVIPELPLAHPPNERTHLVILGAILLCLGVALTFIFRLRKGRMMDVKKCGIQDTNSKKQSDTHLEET
Protocol: as §7, §8, §9

PD-L1 = PD-L1 (Homo sapiens, UniProt Q9NZQ7); assay: Total PD-L1 relative quantification by flow cytometry in cancer cell lines; assay type: cell-based; parameters: Alexa Fluor® 647 Rabbit monoclonal Anti-PD-L1 (ab215251); endogenous in cells; host or cells: HT-29; details: 24 h, total PD-L1 relative to negative control (DMSO)
Sequence of PD-L1 (Q9NZQ7 19-290): as above
Protocol: as §1, §2, §3, §4

[1] = A-549, 100 µM, relative to negative control (DMSO)
[2] = HT-29, 100 µM, detected target relative to negative control (DMSO)
[3] = MCF-7, 100 µM, relative to negative control (DMSO)
[4] = A549 co-cultured with Jurkat T cells
[5] = HT29 co-cultured with Jurkat T cells
[6] = MCF7 co-cultured with Jurkat T cells

| remaining activity at 100 µM (membrane PD-L1; [4]) [%] | remaining activity at 100 µM (membrane PD-L1; [5]) [%] | remaining activity at 100 µM (membrane PD-L1; [6]) [%] | remaining activity at 100 µM (PD-L1; A549, A-549, 100 µM) [%] | remaining activity at 100 µM (PD-L1; HT-29, 100 µM) [%] | remaining activity at 100 µM (PD-L1; MCF7, MCF-7, 100 µM) [%] | inhibition at 100 µM (membrane PD-L1) [%] | SMILES | % c-Myc (c-Myc; [1]) [%] | % c-Myc (c-Myc; [2]) [%] | % c-Myc (c-Myc; [3]) [%] | viability at 100 µM (A-549) [%] | viability at 100 µM (HT-29) [%] | viability at 100 µM (MCF-7) [%] | viability at 100 µM (Jurkat T cells; A-549/Jurkat T co-culture) [%] | viability at 100 µM (Jurkat T cells; HT-29/Jurkat T co-culture) [%] | viability at 100 µM (Jurkat T cells; MCF-7/Jurkat T co-culture) [%] | %VEGFR2 (membrane) (membrane VEGFR-2; [4]) [%] | %VEGFR2 (membrane) (membrane VEGFR-2; [5]) [%] | %VEGFR2 (membrane) (membrane VEGFR-2; [6]) [%] | inhibition rate of A-549 cell viability (A-549) | also measured |
| --- | --- | --- | --- | --- | --- | --- | --- | --- | --- | --- | --- | --- | --- | --- | --- | --- | --- | --- | --- | --- | --- |
| 96 ± 9 | 143 ± 48 | 109 ± 9 | 63 ± 16 | 85 ± 3 | 90 ± 8 | – | COc1ccc(C(OCCc2ccc(CCn3cc(-c4ccccc4)nn3)cc2)(c2ccccc2)c2ccc(OC)cc2)cc1 [Compound 1, 1-(4-(2-(bis(4-methoxyphenyl)(phenyl)methoxy)ethyl)phenethyl)-4-phenyl-1H-1,2,3-triazole] | 182 ± 27 | 135 ± 5 | 73 ± 1 | 127 ± 1 | 81 ± 12 | 56 ± 6 | 88 ± 18 | 108 ± 6 | 86 ± 13 | 79 ± 7 | 85 ± 0 | 76 ± 1 | – | – |
| 60 ± 6 | 124 ± 34 | 82 ± 6 | 76 ± 2 | 82 ± 6 | 115 ± 7 | – | OCCc1ccc(CCn2cc(-c3ccccc3)nn2)cc1 [Compound 2, 2-(4-(2-(4-phenyl-1H-1,2,3-triazol-1-yl)ethyl)phenyl)ethan-1-ol] | 79 ± 10 | 115 ± 8 | 122 ± 13 | 123 ± 25 | 79 ± 20 | 80 ± 6 | 89 ± 17 | 107 ± 4 | 87 ± 22 | 90 ± 10 | 101 ± 11 | 86 ± 2 | – | – |
| 80 ± 3 | 54 ± 3 | 89 ± 3 | 55 ± 8 | 111 ± 8 | 237 ± 19 | 40 to 50 | OCCc1ccc(CCn2cc(-c3ccc(Br)cc3)nn2)cc1 [Compound 4, 2-(4-(2-(4-(4-bromophenyl)-1H-1,2,3-triazol-1-yl)ethyl)phenyl)ethan-1-ol] | 95 ± 2 | 108 ± 8 | 91 ± 8 | 79 ± 5 | 115 ± 14 | 87 ± 6 | 122 ± 11 | 145 ± 9 | 218 ± 69 | 99 ± 4 | 94 ± 3 | 121 ± 19 | around 30% | inhibition rate of HT-29 cell viability (HT-29; co-cultured with Jurkat T cells, 100 μM): not active |
| 75 ± 1 | 63 ± 6 | 66 ± 11 | 62 ± 4 | 104 ± 6 | 110 ± 4 | 40 to 50 | OCCc1ccc(CCn2cc(-c3cccc(Br)c3)nn2)cc1 [Compound 6, 2-(4-(2-(4-(3-bromophenyl)-1H-1,2,3-triazol-1-yl)ethyl)phenyl)ethan-1-ol] | 84 ± 9 | 149 ± 12 | 81 ± 6 | 75 ± 3 | 104 ± 4 | 65 ± 8 | 119 ± 6 | 116 ± 7 | 119 ± 1 | 87 ± 7 | 98 ± 2 | 98 ± 6 | around 30% | – |
